Where a chain is given by its changes, count along the chain named.
Legend:
[1] = target: T1, Seed linoleate 13S-lipoxygenase-1 (Glycine max, UniProt P08170); assay: In Vitro Soybean Lipoxygenase (SLO) Inhibition Assay; conditions: pH 8
T1 sequence (P08170 whole entry): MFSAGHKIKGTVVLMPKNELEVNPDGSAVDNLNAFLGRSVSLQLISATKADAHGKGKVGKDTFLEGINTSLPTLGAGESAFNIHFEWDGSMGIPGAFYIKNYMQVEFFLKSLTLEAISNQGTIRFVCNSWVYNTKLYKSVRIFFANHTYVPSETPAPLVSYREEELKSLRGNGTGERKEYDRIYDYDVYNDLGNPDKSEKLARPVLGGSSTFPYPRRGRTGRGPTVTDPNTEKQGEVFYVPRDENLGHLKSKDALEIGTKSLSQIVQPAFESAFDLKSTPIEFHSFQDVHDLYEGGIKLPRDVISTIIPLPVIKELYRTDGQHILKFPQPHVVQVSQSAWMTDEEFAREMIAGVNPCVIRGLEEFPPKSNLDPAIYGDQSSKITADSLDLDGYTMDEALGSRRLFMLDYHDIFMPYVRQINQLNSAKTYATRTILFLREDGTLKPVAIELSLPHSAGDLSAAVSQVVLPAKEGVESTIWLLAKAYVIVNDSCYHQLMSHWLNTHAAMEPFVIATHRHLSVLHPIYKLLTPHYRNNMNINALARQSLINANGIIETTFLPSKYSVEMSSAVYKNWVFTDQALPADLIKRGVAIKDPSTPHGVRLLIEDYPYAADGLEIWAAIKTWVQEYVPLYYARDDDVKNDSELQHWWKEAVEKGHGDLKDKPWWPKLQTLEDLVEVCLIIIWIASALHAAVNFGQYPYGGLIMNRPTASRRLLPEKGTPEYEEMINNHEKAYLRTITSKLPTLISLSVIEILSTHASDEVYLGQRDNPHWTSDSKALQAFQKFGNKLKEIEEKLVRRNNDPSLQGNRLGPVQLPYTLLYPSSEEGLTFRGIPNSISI
Excerpt: Following are the compositions of the blank, control and sample.

[2] = target: T2, Lipoxygenase (Soybean, UniProt B3TDK4); assay: Molecular Docking
T2 sequence (B3TDK4 whole entry): T1 sequence (P08170 whole entry) with S160E
Method: The crystal structure of soybean lipoxygenase-1 (PDB code: 3PZW), was used in our docking experiments. The 3D structure of 3PZW was reported by Chruszcz et al. [Chruszcz et al., Biophys. J., 95(1):1-9] using X-ray diffraction technique with a resolution of […] . The docking of ligands to the catalytic site of soybean lipoxygenase was performed using AutoDock 4.0 software (http://autodock.scripps.edu/).

| IC50 [1] | Ki [2] | SMILES |
| --- | --- | --- |
| 47500 nM | 357 nM | COC(=O)c1c(C)oc(-c2ccc(C)c(Cl)c2)c1CC(=O)c1ccc(C)c(Cl)c1 [5-(3-Chloro-4-methyl-phenyl)-4-[2-(3-chloro-4-methyl-phenyl)-2-oxo-ethyl)-2-methyl-furan-3-carboxylic acid methyl ester (3i)] |
| 32000 nM | 345 nM | CCOC(=O)c1c(C)oc(-c2ccc(Cl)cc2)c1CC(=O)c1ccc(Cl)cc1 [5-(4-Chloro-phenyl)-4[2-(4-chloro-phenyl)-2-oxo-ethyl]-2-methyl-furan-3-carboxylic acid ethyl ester (3h)] |
| 22100 nM | 178 nM | COC(=O)c1c(C)oc(-c2ccc(C)cc2)c1CC(=O)c1ccc(C)cc1 [Methyl 2-methyl-5-(4-methylphenyl)-4-[2-(4-methylphenyl)-2-oxoethyl]furan-3-carboxylate (3c)] |
| 78500 nM | 662 nM | COC(=O)c1c(C)oc(-c2ccccc2)c1CC(=O)c1ccccc1 [2-Methyl-4-(2-oxo-2-phenyl-ethyl)-5-phenyl-furan-3-carboxylic acid methyl ester (3a)] |
| 22600 nM | 246 nM | CCOC(=O)c1c(C)oc(-c2ccc(C)cc2)c1CC(=O)c1ccc(C)cc1 [2-Methyl-4-(2-oxo-2-p-tolyl-ethyl)-5-p-tolyl-furan-3-carboxylic acid ethyl ester (3d)] |
| 12800 nM | 70.9 nM | COC(=O)c1c(C)oc(-c2ccc(Br)cc2)c1CC(=O)c1ccc(Br)cc1 [5-(4-Bromo-phenyl)-4[2-(4-bromo-phenyl)-2-oxo-ethyl]-2-methyl-furan-3-carboxylic acid methyl ester (3e)] |
| 21200 nM | 141 nM | CCOC(=O)c1c(C)oc(-c2ccc(Br)cc2)c1CC(=O)c1ccc(Br)cc1 [5-(4-Bromo-phenyl)-4[2-(4-bromo-phenyl)-2-oxo-ethyl]-2-methyl-furan-3-carboxylic acid ethyl ester (3f)] |
| – | 232 nM | CC(Cc1ccc(O)c(O)c1)C(C)Cc1ccc(O)c(O)c1 (centres undefined) [LOX inhibitor, N/A] |
| 287000 nM | 868 nM | CCOC(=O)c1c(C)oc(-c2ccccc2)c1CC(=O)c1ccccc1 [2-Methyl-4-(2-oxo-2-phenyl-ethyl)-5-phenyl-furan-3-carboxylic acid ethyl ester (3b)] |
| 32500 nM | 313 nM | COC(=O)c1c(C)oc(-c2ccc(Cl)cc2)c1CC(=O)c1ccc(Cl)cc1 [5-(4-Chloro-phenyl)-4[2-(4-chloro-phenyl)-2-oxo-ethyl]-2-methyl-furan-3-carboxylic acid methyl ester (3g)] |
